# Laboratory results from ChEMBL document CHEMBL5500325, “Identification of ethyl-6-bromo-2((phenylthio)methyl)imidazo[1,2-a]pyridine-3-carboxylate as a narrow spectrum inhibitor of Streptococcus pneumoniae and its FtsZ” (Eur J Med Chem, 2024).
# Active and inactive are the calls of the source. The calls are words filed in the database; no cut-off is given here.
# Experiments:
# [1] = tested on: Streptococcus pneumoniae; test: Antibacterial activity against Streptococcus pneumoniae TIGR4 assessed as inhibition of bacterial growth at 10 uM incubated for 24 hrs by agar plate assay; assay type: functional
# [2] = tested on: Bacillus subtilis; test: Antibacterial activity against Bacillus subtilis 168 assessed as inhibition of bacterial growth at 10 uM incubated for 6 hrs by agar plate assay; assay type: functional, organism-based
# [3] = tested on: Acinetobacter baumannii; test: Antibacterial activity against Acinetobacter baumannii ATCC 19606 assessed as inhibition of bacterial growth incubated for 18 hrs by microbroth dilution method; assay type: functional
# [4] = tested on: Bacillus subtilis; test: Antibacterial activity against Bacillus subtilis; assay type: functional
# [5] = tested on: Staphylococcus aureus; test: Antibacterial activity against Staphylococcus aureus; assay type: functional
# [6] = tested on: Bacillus subtilis; test: Antibacterial activity against Bacillus subtilis 168 assessed as inhibition of bacterial growth incubated for 6 hrs by agar dilution method; assay type: functional
# [7] = tested on: Streptococcus pneumoniae; test: Antibacterial activity against Streptococcus pneumoniae TIGR4 assessed as inhibition of bacterial growth incubated for 24 hrs by agar dilution method; assay type: functional
# [8] = tested on: Staphylococcus aureus; test: Antibacterial activity against Staphylococcus aureus assessed as inhibition of bacterial growth incubated for 16 to 24 hrs by CLSI based microdilution assay; assay type: functional; conditions: time 16-24 hrs
# [9] = tested on: Mycobacterium tuberculosis; test: Antibacterial activity against Mycobacterium tuberculosis H37; assay type: functional
# [10] = biological target: T1, Cell division protein FtsZ (Streptococcus pneumoniae serotype 2 (strain D39 / NCTC 7466)) (UniProt A0A0H2ZNE0); test: Inhibition of Streptococcus pneumoniae FtsZ polymerization at 5 to 40 uM pretreated for 20 mins followed by GTP addition and measured for 20 mins by tryptophan fluorescence based spectrofluorometric analysis; conditions: dose 5-40 µM, time 40.0 min
# T1 sequence (whole entry): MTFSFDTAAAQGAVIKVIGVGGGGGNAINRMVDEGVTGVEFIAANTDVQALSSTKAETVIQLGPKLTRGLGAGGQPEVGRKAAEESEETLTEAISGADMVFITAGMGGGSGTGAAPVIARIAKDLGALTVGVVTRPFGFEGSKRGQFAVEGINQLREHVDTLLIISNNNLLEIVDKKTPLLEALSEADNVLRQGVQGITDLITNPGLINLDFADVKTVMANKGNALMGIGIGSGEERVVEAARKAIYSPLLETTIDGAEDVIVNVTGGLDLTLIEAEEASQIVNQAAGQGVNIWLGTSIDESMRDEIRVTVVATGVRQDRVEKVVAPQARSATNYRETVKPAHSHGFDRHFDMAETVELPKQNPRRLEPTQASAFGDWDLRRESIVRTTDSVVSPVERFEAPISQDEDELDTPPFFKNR
# [11] = biological target: T1, Cell division protein FtsZ (Streptococcus pneumoniae serotype 2 (strain D39 / NCTC 7466)); test: Inhibition of Streptococcus pneumoniae FtsZ assessed as increase in GTPase activity by measuring increase in inorganic phosphate release at >20 uM pretreated for 20 mins followed by GTP addition and measured after 10 mins by malachite green assay based UV-Vis spectrophometry; conditions: time 30.0 min
# [12] = biological target: T1, Cell division protein FtsZ (Streptococcus pneumoniae serotype 2 (strain D39 / NCTC 7466)); test: Inhibition of Streptococcus pneumoniae FtsZ assessed as increase in GTPase activity by measuring increase in inorganic phosphate release upto 20 uM pretreated for 20 mins followed by GTP addition and measured after 10 mins by malachite green assay based UV-Vis spectrophometry; conditions: time 30.0 min
# [13] = biological target: T1, Cell division protein FtsZ (Streptococcus pneumoniae serotype 2 (strain D39 / NCTC 7466)); test: Inhibition of Streptococcus pneumoniae FtsZ assessed as rate of polymerization at 40 uM pretreated for 20 mins followed by GTP addition and measured for 20 mins by tryptophan fluorescence based spectrofluorometric analysis (reference value: 0.19 +/-0.02 au/s); conditions: time 40.0 min
# [14] = biological target: T1, Cell division protein FtsZ (Streptococcus pneumoniae serotype 2 (strain D39 / NCTC 7466)); test: Inhibition of Streptococcus pneumoniae FtsZ assessed as inhibition of rate of polymerization at 40 uM pretreated for 20 mins followed by GTP addition and measured for 20 mins by tryptophan fluorescence based spectrofluorometric analysis; conditions: time 40.0 min
# [15] = biological target: T1, Cell division protein FtsZ (Streptococcus pneumoniae serotype 2 (strain D39 / NCTC 7466)); test: Inhibition of Streptococcus pneumoniae FtsZ assessed as time required to start of polymerization at 40 uM pretreated for 20 mins followed by GTP addition and measured for 20 mins by tryptophan fluorescence based spectrofluorometric analysis (reference value: 37 +/-18 sec); conditions: time 40.0 min
# [16] = biological target: T1, Cell division protein FtsZ (Streptococcus pneumoniae serotype 2 (strain D39 / NCTC 7466)); test: Inhibition of Streptococcus pneumoniae FtsZ assessed as inhibition of extent of polymerization at 30 uM pretreated for 20 mins followed by GTP addition and measured for 20 mins by light scattering based analysis; conditions: time 40.0 min
# [17] = biological target: T1, Cell division protein FtsZ (Streptococcus pneumoniae serotype 2 (strain D39 / NCTC 7466)); test: Inhibition of Streptococcus pneumoniae FtsZ assessed as inhibition of extent of polymerization at 40 uM pretreated for 20 mins followed by GTP addition and measured for 20 mins by light scattering based analysis; conditions: time 40.0 min
# [18] = biological target: T1, Cell division protein FtsZ (Streptococcus pneumoniae serotype 2 (strain D39 / NCTC 7466)); test: Inhibition of Streptococcus pneumoniae FtsZ polymerization assessed as very short and thin polymers at 40 uM preincubated for 20 mins followed by GTP addition for 200 secs and later incubated on copper-TEM grid for 5 mins by transmission electron microscopy; conditions: time 1700.0 sec
# [19] = biological target: T1, Cell division protein FtsZ (Streptococcus pneumoniae serotype 2 (strain D39 / NCTC 7466)); test: Inhibition of Streptococcus pneumoniae FtsZ polymerization assessed as length of polymers at 40 uM preincubated for 20 mins followed by GTP addition for 200 secs and later incubated on copper-TEM grid for 5 mins by transmission electron microscopy (reference value: 61 +/-26 nm); conditions: time 1700.0 sec
# [20] = biological target: T1, Cell division protein FtsZ (Streptococcus pneumoniae serotype 2 (strain D39 / NCTC 7466)); test: Inhibition of Streptococcus pneumoniae FtsZ polymerization at 20 uM preincubated for 20 mins followed by GTP addition for 3 mins by atomic force microscopy; conditions: time 23.0 min
# [21] = tested on: Streptococcus pneumoniae; test: Antibacterial activity against Streptococcus pneumoniae TIGR4 assessed as inhibition of bacterial proliferation incubated for 24 hrs by CLSI based analysis; assay type: functional, organism-based
# [22] = Antiproliferative activity against human HeLa cells assessed as inhibition of cell growth incubated for 24 hrs by SRB assay; assay type: toxicity, cell-based
# [23] = tested on: Streptococcus pneumoniae; test: Bactericidal activity against Streptococcus pneumoniae TIGR4 assessed as induction of cell death by measuring proportion of PI-stained bacteria at 20 ug/ml incubated for 12 hrs by propidium iodide staining based confocal microscopy (reference value: 2%); assay type: functional; conditions: dose 20 µg/ml
# [24] = tested on: Streptococcus pneumoniae; test: Bactericidal activity against Streptococcus pneumoniae TIGR4 assessed as induction of cell death by measuring proportion of PI-stained bacteria at 40 ug/ml incubated for 12 hrs by propidium iodide staining based confocal microscopy (reference value: 2%); assay type: functional; conditions: dose 40 µg/ml
# [25] = biological target: T1, Cell division protein FtsZ (Streptococcus pneumoniae serotype 2 (strain D39 / NCTC 7466)); test: Inhibition of FtsZ in Streptococcus pneumoniae assessed as propotion of cells with intact Z-ring at 40 uM incubated for 30 mins by DAPI staining based immunostaining analysis (reference value: 92%); set-up: scale not given: the % may be the effect or the level left
# [26] = biological target: T1, Cell division protein FtsZ (Streptococcus pneumoniae serotype 2 (strain D39 / NCTC 7466)); test: Inhibition of FtsZ in Streptococcus pneumoniae assessed as improper distribution of FtsZ throughout the cells at 40 uM incubated for 30 mins by DAPI staining based immunostaining analysis
# [27] = tested on: Streptococcus pneumoniae; test: Induction of DNA nucleoid segregation in Streptococcus pneumoniae at 40 uM incubated for 30 mins by DAPI staining based immunostaining analysis; assay type: functional, organism-based
# [28] = tested on: Streptococcus pneumoniae; test: Induction of membrane disruption in Streptococcus pneumoniae TIGR4 at 40 uM incubated for 30 mins by FM4-64 live cell staining based confocal microscopy; assay type: functional, organism-based
# [29] = tested on: Escherichia coli; test: Antibacterial activity against Escherichia coli K12 assessed as inhibition of bacterial growth at 10 to 20 uM incubated for 4 hrs; assay type: functional, organism-based; conditions: dose 10-20 µM
# [30] = tested on: Vibrio cholerae; test: Antibacterial activity against Vibrio cholerae assessed as inhibition of bacterial growth at 10 to 20 uM incubated for 4 hrs; assay type: functional, organism-based; conditions: dose 10-20 µM
# [31] = tested on: Klebsiella pneumoniae; test: Antibacterial activity against Klebsiella pneumoniae assessed as inhibition of bacterial growth at 10 to 20 uM incubated for 4 hrs; assay type: functional, organism-based; conditions: dose 10-20 µM
# [32] = tested on: Staphylococcus aureus; test: Antibacterial activity against Staphylococcus aureus assessed as inhibition of bacterial growth at 10 to 20 uM incubated for 4 hrs; assay type: functional, organism-based; conditions: dose 10-20 µM
# [33] = tested on: Bacillus subtilis; test: Antibacterial activity against Bacillus subtilis 168 assessed as inhibition of bacterial growth at 10 to 20 uM incubated for 4 hrs; assay type: functional, organism-based; conditions: dose 10-20 µM
# [34] = tested on: Streptococcus pyogenes; test: Antibacterial activity against Streptococcus pyogenes assessed as inhibition of bacterial growth at 10 to 20 uM incubated for 20 hrs; assay type: functional, organism-based; conditions: dose 10-20 µM
structure (smiles),measurement,setting,value
CCOC(=O)c1c(CSc2ccccc2)nc2ccc(Br)cn12,inhibition at 10 µM,[1],25%
same,Activity,[2],inactive
Cc1nc2ccccc2n1C(=O)/C=C/c1ccc(Br)cc1,MIC,[3],32 µg/mL
CCOC(=O)c1c(CSc2ccc([N+](=O)[O-])cc2)nc2ccc(Br)cn12,inhibition at 10 µM,[1],0%
same,Activity,[2],inactive
CCOC(=O)c1c(CSc2ccc(Cl)cc2)nc2ccc(Br)cn12,inhibition at 10 µM,[1],17%
same,Activity,[2],inactive
NC(=O)c1c(F)ccc(OCc2nc3cc(Cl)cnc3s2)c1F,MIC,[4],1 µg/mL
same,MIC,[5],0.5 µg/mL
CCOC(=O)c1c(CSc2ccccc2Br)nc2ccc(Br)cn12,inhibition at 10 µM,[1],0%
same,Activity,[2],inactive
O=C(CCc1ccc(O)cc1)C1=C(O)C(Cc2ccc(O)cc2)CCC1 (stereo unspecified),MIC,[6],~3.8 µg/mL
same,MIC,[7],~0.7 µg/mL
NC(=O)c1c(F)ccc(OCc2nc3cc(C(F)(F)F)cnc3s2)c1F,MIC,[8],2 µg/mL
CC(NC(=O)c1nc2ccccc2n1-c1ccccc1)c1ccccc1 (stereo unspecified),MIC,[4],1.56 µg/mL
same,MIC,[9],0.78 µg/mL
CC1=CC(=O)c2ccccc2C1=O [MENADIONE],inhibition at 10 µM,[1],100%
CCOC(=O)c1c(CSc2ccccc2OC)nc2ccc(Br)cn12,inhibition at 10 µM,[1],17%
same,Activity,[2],inactive
CCOC(=O)c1c(CSc2ccc3ccccc3c2)nc2ccc(Br)cn12,inhibition at 10 µM,[1],54%
same,Activity,[2],inactive
same,inhibition,[10],Active
same,inhibition,[11],inactive
CCOC(=O)c1c(CSc2ccc(OC)cc2)nc2ccc(Br)cn12,inhibition at 10 µM,[1],67%
same,inhibition,[12],Active
same,Activity,[2],inactive
same,inhibition,[10],Active
same,INH,[13],0.05 AU/sec
same,inhibition,[14],75%
same,TIME,[15],0.0644 h
same,inhibition,[16],34%
same,inhibition,[17],59%
same,inhibition,[18],Active
same,Activity,[19],13 nm
same,inhibition,[20],Active
same,IC50,"[21]; TIGR4, 24 h",17 µM
same,MIC,"[21]; TIGR4, time 24 hrs",20 µg/mL
same,IC50 at 24 h,[22],41 µM
same,Activity,[23],17%
same,Activity,[24],28%
same,Activity,[25],46%
same,inhibition,[26],54%
same,Activity,[27],inactive
same,Activity,[28],inactive
same,Activity,[29],inactive
same,Activity,[30],inactive
same,Activity,[31],inactive
same,Activity,[32],inactive
same,Activity,[33],inactive
same,Activity,[34],Active
CCOC(=O)c1c(CSc2ccc(Br)cc2)nc2ccc(Br)cn12,inhibition at 10 µM,[1],0%
same,Activity,[2],inactive
CCOC(=O)c1c(CSc2ccncc2)nc2ccc(Br)cn12,inhibition at 10 µM,[1],31%
same,Activity,[2],inactive
CCOC(=O)c1c(CSc2nc3ccccc3[nH]2)nc2ccc(Br)cn12,inhibition at 10 µM,[1],37%
same,Activity,[2],inactive
